{"source": "patent US20120214798A1", "about": "“Novel Ethanediamone Hepcidine Antagonists” (VIFOR (INTERNATIONAL) AG, priority 2009, published 2012)", "molecular_target": "T1, human ferroportin (Homo sapiens, UniProt Q9NP59)", "T1 construct": "expressed in transfected cells", "T1 sequence (Q9NP59 1-571)": "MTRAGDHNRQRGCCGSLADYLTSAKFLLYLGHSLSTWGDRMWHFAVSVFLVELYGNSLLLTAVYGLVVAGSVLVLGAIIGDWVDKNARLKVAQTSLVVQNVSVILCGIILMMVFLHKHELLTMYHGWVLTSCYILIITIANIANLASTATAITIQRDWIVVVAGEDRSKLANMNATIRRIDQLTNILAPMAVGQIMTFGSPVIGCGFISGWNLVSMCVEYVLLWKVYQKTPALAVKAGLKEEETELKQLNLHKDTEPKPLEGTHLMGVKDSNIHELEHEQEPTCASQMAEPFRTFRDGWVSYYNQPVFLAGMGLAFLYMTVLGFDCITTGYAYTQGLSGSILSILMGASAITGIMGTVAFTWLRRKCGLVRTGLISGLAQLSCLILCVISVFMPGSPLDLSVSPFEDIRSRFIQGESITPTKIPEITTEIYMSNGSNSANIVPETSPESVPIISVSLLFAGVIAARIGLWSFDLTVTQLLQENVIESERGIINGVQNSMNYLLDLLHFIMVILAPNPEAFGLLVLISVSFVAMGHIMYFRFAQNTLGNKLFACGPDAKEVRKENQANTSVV", "assay": "Ferroportin internalization assay (inhibition of hepcidin-induced internalization of Fpn, MDCK-FPN-HaloTag cells)", "format": "cell-based", "details": "100 nM hepcidin", "protocol": "The hepcidin-antagonistic action of the ethanediamine compounds of the present invention was determined by means of the “ferroportin internalization assay” described in the following.\nOrganic compounds of low molecular weight which counteract the biological actions of hepcidin on its receptor, the iron exporter ferroportin (Fpn), were identified on the basis of their ability to inhibit hepcidin-induced internalization of Fpn in living cells. For this purpose, a stable cell line (Madin-Darby canine kidney, MDCK) was produced which constitutively expresses human ferroportin fused recombinantly at its C terminus with a fluorescent reporter protein (HaloTag®, Promega Corp.). The internalization of Fpn was monitored by labelling these cells with fluorescent ligands (HaloTag®-TMR, tetramethylrhodamine) which join covalently on to the HaloTag reporter gene fused with the Fpn. […] Optimized image analysis algorithms were used to ascertain the cell surface and to quantify the corresponding membrane fluorescence associated with the Fpn-HaloTag fusion protein. This assay allows a quantitative image-based analysis in order to quickly evaluate compounds which can block hepcidin-induced internalization of Fpn. This assay is a direct in vitro pendant of the in vivo action mechanism proposed for medicament candidates and is therefore suitable as an initial assay with a high throughput for identifying compounds which counteract the action of hepcidin on its receptor ferroportin.\n• 7,500 cells per well (MDCK-FPN-HaloTag) were transinoculated in 50 μl of DMEM medium (Dulbeccos Modified Eagle Medium with 10% foetal bovine serum (FBS), which contained 1% penicillin, 1% streptomycin and 450 μg/ml of G-418) in microtitre plates with 384 wells (384 Cell carrier plates, Perkin Elmer, cat. no. 6007430), followed by incubation overnight at 37° C./5% CO2. • The volume of the medium was reduced to 10 μl, and 10 μl of 5 μM HaloTag-TMR ligands (Promega, cat. no. G 8251) were added in DMEM medium in order to stain the Fpn-HaloTag fusion protein. • 15 min incubation at 37° C./5% CO2 • The HaloTag-TMR ligand was removed and the cells were washed with fresh DMEM medium and the volume was reduced to 20 μl of DMEM medium. • 3 μl per well of a solution of the test compound (dissolved DMSO) were added ([…]). • 7 μl of […] hepcidin (Peptides International, cat. no. PLP-4392-s, 100 μM stock solution diluted in water in DMEM medium) were added per well up to a final hepcidin concentration of 100 nM. • The cells were incubated overnight at 37° C./5% CO2. • The cells were fixed by adding paraformaldehyde (PFA, Electron Microscopy Sciences, cat. no. 15710-S) directly to the cells up to a final concentration of 4%, followed by incubation at room temperature for 15-20 minutes. • The PFA solution was removed and the cells were washed with PBS (phosphate-buffered saline solution), in each case 30 μl remaining in the plate. • 20 μl of Draq5 (Biostatus, cat. no. DR 51000) were added up to a final concentration of 2.5 μM in order to stain the cell nuclei, and the plates were sealed with a foil plate seal. • The plates were analysed with the Opera Plate Imager (Opera Confocal Plate Imager, Perkin Elmer) with 7 images per well; 440 ms exposure time per image, […] focal point height."}
{"smiles": "Fc1ccc(C(CN2CCN(c3cnccn3)CC2)NCc2ccccn2)cc1", "note": "(stereo not drawn) [Example 1, [1-(4-Fluoro-phenyl)-2-(2,3,5,6-tetrahydro-[1,2′]bipyrazinyl-4-yl)-ethyl]-pyridin-2-ylmethyl-amine]", "values": [{"measurement": "I [%] (median inhibition [%] at 10 μm substance conc.)", "result": ">50", "unit": "%"}]}
{"smiles": "O=C(C1CCCO1)N1CCN(CC(NCc2ccccn2)c2ccc(F)cc2)CC1", "note": "(stereo not drawn) [Example 2, (4-{2-(4-Fluoro-phenyl)-2-[(pyridin-2-ylmethyl)-amino]-ethyl}-piperazin-1-yl)-(tetrahydro-furan-2-yl)-methanone]", "values": [{"measurement": "I [%] (median inhibition [%] at 10 μm substance conc.)", "result": "<50", "unit": "%"}]}
{"smiles": "O=C(C1CCCO1)N1CCN(CC(NCc2ccccn2)c2ccccc2)CC1", "note": "(stereo not drawn) [Example 3, (4-{2-Phenyl-2-[(pyridin-2-ylmethyl)-amino]-ethyl}-piperazin-1-yl)-(tetrahydro-furan-2-yl)-methanone]", "values": [{"measurement": "I [%] (median inhibition [%] at 10 μm substance conc.)", "result": "<50", "unit": "%"}]}
{"smiles": "COCCN1CCN(C(CN2CCC(N3CCCCC3)CC2)c2ccccc2)CC1", "note": "(stereo not drawn) [Example 4]", "values": [{"measurement": "I [%] (median inhibition [%] at 10 μm substance conc.)", "result": ">50", "unit": "%"}]}
{"smiles": "c1ccc(C(CN2CCC(N3CCCCC3)CC2)NCCN2CCOCC2)cc1", "note": "(stereo not drawn) [Example 5]", "values": [{"measurement": "I [%] (median inhibition [%] at 10 μm substance conc.)", "result": "<50", "unit": "%"}]}
{"smiles": "COc1ccc(CNC(CN2CCC(N3CCCCC3)CC2)c2ccccc2)cc1", "note": "(stereo not drawn) [Example 6]", "values": [{"measurement": "I [%] (median inhibition [%] at 10 μm substance conc.)", "result": "<50", "unit": "%"}]}
